Source: paper PMC9486168, “Protein-protein interaction-based high throughput screening for adenylyl cyclase 1 inhibitors: Design, implementation, and discovery of a novel chemotype” (Frontiers in Pharmacology, 2022)
Structures can show the parent of a compound that is named as a salt.

Tests used:
AC1 = target: T1, AC1 (Homo sapiens, UniProt Q08828); experiment: cAMP accumulation assay, AC1-HEK Δ3/6 KO cells; format: cell-based; conditions: for IC50: CDI analog SAR set, 3 μM A23187, read-out: IC50 (μM) ± SEM AC1
T1 construct: expressed in transfected cells
T1 sequence (Q08828 whole entry): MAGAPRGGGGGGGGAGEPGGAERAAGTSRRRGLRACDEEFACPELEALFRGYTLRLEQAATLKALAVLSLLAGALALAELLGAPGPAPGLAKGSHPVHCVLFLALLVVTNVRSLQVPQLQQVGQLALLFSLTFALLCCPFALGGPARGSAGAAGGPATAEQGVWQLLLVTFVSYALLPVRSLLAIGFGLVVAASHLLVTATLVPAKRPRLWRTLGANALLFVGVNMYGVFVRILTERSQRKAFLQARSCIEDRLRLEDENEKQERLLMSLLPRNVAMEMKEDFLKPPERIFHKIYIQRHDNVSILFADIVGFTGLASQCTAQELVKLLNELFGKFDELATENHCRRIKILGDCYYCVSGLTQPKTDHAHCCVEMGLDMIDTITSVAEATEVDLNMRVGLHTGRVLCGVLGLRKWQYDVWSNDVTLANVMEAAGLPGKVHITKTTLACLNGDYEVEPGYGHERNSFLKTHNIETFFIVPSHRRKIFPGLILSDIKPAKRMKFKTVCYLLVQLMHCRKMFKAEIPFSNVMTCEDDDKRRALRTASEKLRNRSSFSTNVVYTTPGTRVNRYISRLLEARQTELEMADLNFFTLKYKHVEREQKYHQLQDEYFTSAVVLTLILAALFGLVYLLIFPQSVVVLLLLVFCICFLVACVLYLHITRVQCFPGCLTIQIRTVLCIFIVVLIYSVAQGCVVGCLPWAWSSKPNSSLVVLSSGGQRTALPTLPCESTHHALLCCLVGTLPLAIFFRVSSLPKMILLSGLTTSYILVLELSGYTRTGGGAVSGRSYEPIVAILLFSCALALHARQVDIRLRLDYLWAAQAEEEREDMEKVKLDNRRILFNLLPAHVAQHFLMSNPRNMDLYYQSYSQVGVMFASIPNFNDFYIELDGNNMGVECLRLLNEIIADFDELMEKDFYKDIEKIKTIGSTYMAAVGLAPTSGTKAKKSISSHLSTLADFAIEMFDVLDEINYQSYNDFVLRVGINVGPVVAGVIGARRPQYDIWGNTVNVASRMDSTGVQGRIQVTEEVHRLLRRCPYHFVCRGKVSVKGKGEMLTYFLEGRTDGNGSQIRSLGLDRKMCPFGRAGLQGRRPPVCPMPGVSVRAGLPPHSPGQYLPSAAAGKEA
Protocol: Cells were then incubated for 1 h at 37°C and 5% CO2. Cells were then treated with varying concentrations of inhibitors for 30 min, followed by treatment with calcium ionophore A23187 (3 μM) in 500 μM 3-isobutyl-1-methylxanthine (IBMX), a phosphodiesterase inhibitor, for 1 h at RT (Sigma Aldrich, St. Louis, MO). Finally, Cisbio HTRF detection reagents were added and incubated for 1–24 h at RT. Plates were read according to manufacturer’s protocol on an HTRF-compatible plate reader at 620 and 665 nm cAMP concentrations were interpolated from a cAMP standard curve. […] For cytotoxicity assays, compounds were tested at 30 μM and this protocol was used with the exception of detection reagents; CellTiter-Glo 2.0 reagent was used according to manufacturer’s protocol and luminescence was read on the Synergy Neo2 plate reader. Data are normalized to cells treated with vehicle (100%) or 2% tween (0%) and are represented as the percent of vehicle, from the average of three independent experiments (N = 3).

AC8 = target: T2, AC8 (Homo sapiens, UniProt P40145); experiment: cAMP accumulation assay, AC8-HEK Δ3/6 KO cells; format: cell-based; conditions: for IC50: CDI analog SAR set, 3 μM A23187, read-out: IC50 (μM) ± SEM AC8
T2 construct: expressed in transfected cells
T2 sequence (P40145 whole entry, species assumed): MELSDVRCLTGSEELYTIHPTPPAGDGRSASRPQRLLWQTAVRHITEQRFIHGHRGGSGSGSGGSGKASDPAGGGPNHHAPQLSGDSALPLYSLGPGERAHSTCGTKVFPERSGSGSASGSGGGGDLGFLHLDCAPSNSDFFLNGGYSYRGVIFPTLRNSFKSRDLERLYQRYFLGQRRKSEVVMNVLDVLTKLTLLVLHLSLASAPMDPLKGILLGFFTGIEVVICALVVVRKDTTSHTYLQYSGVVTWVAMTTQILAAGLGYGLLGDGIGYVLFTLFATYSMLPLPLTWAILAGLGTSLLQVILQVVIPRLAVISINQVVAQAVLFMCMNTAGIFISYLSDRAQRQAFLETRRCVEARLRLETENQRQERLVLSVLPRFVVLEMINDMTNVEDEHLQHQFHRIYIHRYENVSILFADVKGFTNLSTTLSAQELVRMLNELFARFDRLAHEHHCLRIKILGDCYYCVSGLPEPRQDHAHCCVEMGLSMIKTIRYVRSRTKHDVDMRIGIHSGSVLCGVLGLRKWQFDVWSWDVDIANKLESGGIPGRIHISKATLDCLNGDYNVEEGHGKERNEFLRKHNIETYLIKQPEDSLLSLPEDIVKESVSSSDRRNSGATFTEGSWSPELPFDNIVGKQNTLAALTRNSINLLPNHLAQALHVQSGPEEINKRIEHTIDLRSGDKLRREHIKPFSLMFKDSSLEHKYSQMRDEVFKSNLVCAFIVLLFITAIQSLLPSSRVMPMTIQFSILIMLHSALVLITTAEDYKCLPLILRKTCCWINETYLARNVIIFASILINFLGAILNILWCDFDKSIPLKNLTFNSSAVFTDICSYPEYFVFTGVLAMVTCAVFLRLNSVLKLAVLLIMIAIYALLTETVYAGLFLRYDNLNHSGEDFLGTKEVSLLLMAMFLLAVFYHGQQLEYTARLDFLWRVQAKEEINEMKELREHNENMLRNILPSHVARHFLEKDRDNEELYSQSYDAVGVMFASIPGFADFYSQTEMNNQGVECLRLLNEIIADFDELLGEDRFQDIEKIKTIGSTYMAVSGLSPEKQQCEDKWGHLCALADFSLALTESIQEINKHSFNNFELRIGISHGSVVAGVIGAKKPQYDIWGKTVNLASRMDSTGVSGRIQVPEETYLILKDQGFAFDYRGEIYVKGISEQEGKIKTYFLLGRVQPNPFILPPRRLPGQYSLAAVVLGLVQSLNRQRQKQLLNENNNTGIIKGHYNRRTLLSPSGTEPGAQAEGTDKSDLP
Protocol: (§1) Cryopreserved HEK293 cells with AC3 and AC6 knocked out, and stably expressing AC1, AC2, AC5, or AC8 (AC1-HEK Δ3/6 KO, AC2-HEK Δ3/6 KO, AC5-HEK Δ3/6 KO, or AC8-HEK Δ3/6 KO cells, respectively; [Soto-Velasquez et al., 2018]) were plated at 5,000 cells/well. Cells were then incubated for 1 h at 37°C and 5% CO2. Cells were then treated with varying concentrations of inhibitors for 30 min, followed by treatment with calcium ionophore A23187 (3 μM) in 500 μM 3-isobutyl-1-methylxanthine (IBMX), a phosphodiesterase inhibitor, for 1 h at RT (Sigma Aldrich, St. Louis, MO). Finally, Cisbio HTRF detection reagents were added and incubated for 1–24 h at RT. Plates were read according to manufacturer’s protocol on an HTRF-compatible plate reader at 620 and 665 nm cAMP concentrations were interpolated from a cAMP standard curve. […] For cytotoxicity assays, compounds were tested at 30 μM and this protocol was used with the exception of detection reagents; CellTiter-Glo 2.0 reagent was used according to manufacturer’s protocol and luminescence was read on the Synergy Neo2 plate reader. Data are normalized to cells treated with vehicle (100%) or 2% tween (0%) and are represented as the percent of vehicle, from the average of three independent experiments (N = 3).

[1] = Cytotoxicity assay (CellTiter-Glo 2.0) in AC1-HEK Δ3/6 KO cells; format: cell-based; conditions: human, percent of vehicle, read-out: % Viable Cells at AC1 30 μM
Protocol: as §1

AC1-C1b/CaM = target: T3, AC1-C1b/CaM (Homo sapiens, UniProt P0DP23); experiment: AC1-C1b/CaM fluorescence polarization (FP) assay; format: binding; conditions: repurchased powder
T3 construct: made in house; host or cells: E. coli BL21-CodonPlus (DE3)-RIPL

| Compound | IC50 (AC1) | IC50 (AC8) | fold more potent at AC8 than AC1 (AC8; cAMP accumulation IC50s) | fold reduction in AC1 potency compared to 15 (AC1; matched molecular pair 15) | fold reduction in AC8 potency compared to 15 (AC8; matched molecular pair 15) | viability at 30 min, 30 μM [1] | inhibition of AC1/CaM in the FP assay after fresh powder stocks were ordered (AC1-C1b/CaM) |
| --- | --- | --- | --- | --- | --- | --- | --- |
| CN1CCN(C(c2cccs2)c2c(NC(=O)c3ccco3)sc3c2CCCC3)CC1 (stereo not drawn) [Compound 27] | 34.8 ± 13 µM | 25.6 ± 6.77 µM |  |  |  | 48% |  |
| CCN1CCN(C(c2cccs2)c2c(NC(=O)c3ccco3)sc3c2CCCC3)CC1 (stereo not drawn) [Compound 28] | 20 ± 5.23 µM | 11.6 ± 1.82 µM | 2 fold |  |  | 88% |  |
| Cc1cc(C(c2cccs2)N2CCOCC2)c(NC(=O)c2ccco2)s1 (stereo not drawn) [Compound 30] | 10.6 ± 2.72 µM | 4.99 ± 1.1 µM |  |  |  | 100% |  |
| CN1CCC[C@H]1c1cccnc1.O=C(O)C(O)C(O)C(=O)O.O=C(O)C(O)C(O)C(=O)O [nicotine ditartrate] |  |  |  |  |  |  | did not exhibit significant inhibition |
| CCN(C)C(=O)Oc1cccc([C@H](C)N(C)C)c1 [rivastigmine tartrate] |  |  |  |  |  |  | did not exhibit significant inhibition |
| ethyl quinine |  |  |  |  |  |  | did not exhibit significant inhibition |

Now from value to compound, other results behind:

| IC50 (AC1) | IC50 (AC8) | fold more potent at AC8 than AC1 (AC8; cAMP accumulation IC50s) | fold reduction in AC1 potency compared to 15 (AC1; matched molecular pair 15) | fold reduction in AC8 potency compared to 15 (AC8; matched molecular pair 15) | Compound | viability at 30 min, 30 μM [1] | inhibition of AC1/CaM in the FP assay after fresh powder stocks were ordered (AC1-C1b/CaM) |
| --- | --- | --- | --- | --- | --- | --- | --- |
| 2.48 ± 0.39 µM | 3.23 ± 0.57 µM |  |  |  | CCc1cc(C(c2cccs2)N2CCCCC2)c(NC(=O)c2ccco2)s1 (stereo not drawn) [Compound 22] | 97% |  |
| 3.08 ± 0.25 µM | 4.21 ± 1.01 µM |  |  |  | Cc1cc(C(c2cccs2)N2CCC(C)CC2)c(NC(=O)c2ccco2)s1 (stereo not drawn) [Compound 23] | 100% |  |
| 4.39 ± 0.44 µM | 2.92 ± 1.36 µM |  |  |  | CCc1cc(C(c2cccs2)N2CCN(CC)CC2)c(NC(=O)c2ccco2)s1 (stereo not drawn) [Compound 26] | 61% |  |
| 10.3 ± 1.45 µM | 14.4 ± 4.1 µM |  | ~2 fold | ~3 fold | CCc1cc(C(c2ccccc2)N2CCN(C)CC2)c(NC(=O)c2ccco2)s1 (stereo not drawn) [Compound 29] | 65% |  |
| 5.25 ± 1.07 µM | 1.49 ± 0.38 µM |  |  |  | CCc1cc(C(c2cccs2)N2CCOCC2)c(NC(=O)c2ccco2)s1 (stereo not drawn) [Compound 31] | 37% |  |
| 3.58 ± 2.26 µM | 2.7 ± 1.92 µM |  |  |  | CCc1cc(C(Nc2ccccn2)c2cccs2)c(NC(=O)c2ccco2)s1 (stereo not drawn) [Compound 33] | 88% |  |
